For test [1], the system named is ERK1/2 (Thr202/Tyr204) phosphorylation in KYSE520 cells. Kind of test: Cellular Phospho-p44/42 MAPK (Erk1/2) (Thr202/Tyr204) assay, In-Cell Western. The conditions noted are these: Homo sapiens, KYSE-520; KYSE520 cells, 1 hour incubation, pERK signal normalized to GAPDH; single assay or mean of multiple assays; read-out: Biological Example 2 IC50. Type of test: cell-based. In outline: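 KYSE520 cells were treated 1 h with a 10-point 1:3 series (20 μM-1 nM, 0.5% DMSO), then fixed and stained for pERK1/2 (Thr202/Tyr204) and GAPDH by In-Cell Western. pERK signal was normalized to GAPDH per well; IC50 from 4-parameter fit.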

The next test addresses T1, full-length SHP2 (Homo sapiens, UniProt Q06124).
T1 construct: 1 nM full-length SHP2 (His6-tagged SHP2(2-527), recombinantly expressed in E. coli and purified in-house); His6; made in house; host or cells: E. coli
T1 sequence (Q06124 2-527): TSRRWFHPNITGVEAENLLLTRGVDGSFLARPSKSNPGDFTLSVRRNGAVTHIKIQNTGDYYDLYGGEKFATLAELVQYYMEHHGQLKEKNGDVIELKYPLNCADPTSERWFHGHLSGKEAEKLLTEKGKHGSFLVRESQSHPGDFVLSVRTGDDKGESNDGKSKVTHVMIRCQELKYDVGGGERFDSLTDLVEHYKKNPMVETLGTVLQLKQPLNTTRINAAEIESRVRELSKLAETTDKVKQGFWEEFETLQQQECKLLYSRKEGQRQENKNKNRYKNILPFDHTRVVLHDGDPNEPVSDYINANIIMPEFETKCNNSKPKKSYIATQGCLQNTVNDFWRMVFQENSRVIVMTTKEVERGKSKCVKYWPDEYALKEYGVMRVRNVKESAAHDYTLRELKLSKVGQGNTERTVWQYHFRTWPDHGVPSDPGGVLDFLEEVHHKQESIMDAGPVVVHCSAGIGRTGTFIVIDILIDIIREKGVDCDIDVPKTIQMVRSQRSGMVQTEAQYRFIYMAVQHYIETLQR
Kind of test: SHP2 enzymatic assay (fluorescence intensity kinetic assay, DiFMUP hydrolysis). The conditions noted are these: 1 nM His6-tagged SHP2(2-527), 1 μM activating peptide, 50 μM DiFMUP; single assay or mean of multiple assays; read-out: Biological Example 1 IC50. The test is classed as biochemical.

pIC50: −log10 of the molar value.

The term pIC50 denotes the IC50 on a negative log10 scale, so that one unit is a factor of ten.

On to `CNc1nccc(Sc2cnc(N3CCC4(CC3)Cc3ccccc3[C@H]4N)nn2)c1Cl` [Example 53, (S)-1′-(6-((3-chloro-2-(methylamino)pyridin-4-yl)thio)-1,2,4-triazin-3-yl)-1,3-dihydrospiro[indene-2,4′-piperidin]-1-amine], for which the pIC50 is 8.40 in test [1] and 7.34 on full-length SHP2.
In the same order, the values of `Cc1nccc(Sc2cnc(N3CCC4(CC3)Cc3ccccc3[C@H]4N)nn2)c1Cl` [Example 54, (S)-1′-(6-((3-chloro-2-methylpyridin-4-yl)thio)-1,2,4-triazin-3-yl)-1,3-dihydrospiro[indene-2,4′-piperidin]-1-amine] are 8.15 and 7.21.
In the case of `COc1nccc(Sc2cnc(N3CCC4(CC3)Cc3ccccc3[C@H]4N)nn2)c1Cl` [Example 55, (S)-1′-(6-((3-chloro-2-methoxypyridin-4-yl)thio)-1,2,4-triazin-3-yl)-1,3-dihydrospiro[indene-2,4′-piperidin]-1-amine], the negative-log IC50 (pIC50) in test [1] was 7.64; at full-length SHP2 it was 6.94.
Taken in the same sequence, the figures for `Cc1nc2c(s1)[C@H](N)C1(CCN(c3ncc(Sc4ccnc(N)c4Cl)nn3)CC1)C2` [Example 57, (R)-1′-(6-((2-amino-3-chloropyridin-4-yl)thio)-1,2,4-triazin-3-yl)-2-methyl-4,6-dihydrospiro[cyclopenta[d]thiazole-5,4′-piperidin]-6-amine] were 6.86 and 6.19.
With `Nc1nccc(Sc2cnc(N3CCC4(CC3)Cc3ncsc3[C@H]4N)nn2)c1Cl` [Example 58, (S)-1′-(6-((2-amino-3-chloropyridin-4-yl)thio)-1,2,4-triazin-3-yl)-4,6-dihydrospiro[cyclopenta[d]thiazole-5,4′-piperidin]-6-amine], the pIC50 was 9.00 in test [1] and 7.41 at full-length SHP2.
As for `Cc1ccc2c(c1)CC1(CCN(c3ncc(Sc4ccnc(N)c4Cl)nn3)CC1)[C@H]2N` [Example 59, (R)-1′-(6-((2-amino-3-chloropyridin-4-yl)thio)-1,2,4-triazin-3-yl)-5-methyl-1,3-dihydrospiro[indene-2,4′-piperidin]-1-amine], the values for the pIC50 (in test [1]; at full-length SHP2) were 6.77 and 6.93, respectively.
Consider `Cc1ccc2c(n1)CC1(CCN(c3ncc(Sc4ccnc(N)c4Cl)nn3)CC1)[C@H]2N` [Example 60], for which the values for the pIC50 (in test [1]; at full-length SHP2) were 6.28 and 6.96, respectively.
For the molecule `Cc1nc2c(s1)[C@@H](N)C1(CCN(c3ncc(Sc4ccnc(N)c4Cl)nn3)CC1)C2` [Example 61, (S)-1′-(6-((2-amino-3-chloropyridin-4-yl)thio)-1,2,4-triazin-3-yl)-2-methyl-4,6-dihydrospiro[cyclopenta[d]thiazole-5,4′-piperidin]-6-amine], the pIC50 in test [1] was 8.22; on full-length SHP2 it was 7.06.
On to `Cc1ccc2c(n1)CC1(CCN(c3ncc(Sc4ccnc(N)c4Cl)nn3)CC1)[C@@H]2N` [Example 62], for which the negative-log IC50 (pIC50) in test [1] is 8.22; on full-length SHP2, 7.41.
In the same order, the values of `COc1cc2c(cc1Cl)[C@H](N)C1(CCN(c3ncc(Sc4ccnc(N)c4Cl)nn3)CC1)C2` [Example 63, (R)-1′-(6-((2-amino-3-chloropyridin-4-yl)thio)-1,2,4-triazin-3-yl)-6-chloro-5-methoxy-1,3-dihydrospiro[indene-2,4′-piperidin]-1-amine] are 6.18 and 6.60.
As to `Nc1nccc(Sc2cnc(N3CCC4(CC3)Cc3ccc(Cl)cc3[C@H]4N)nn2)c1Cl` [Example 64, (S)-1′-(6-((2-amino-3-chloropyridin-4-yl)thio)-1,2,4-triazin-3-yl)-6-chloro-1,3-dihydrospiro[indene-2,4′-piperidin]-1-amine], the negative logarithm of the IC50 (pIC50) in test [1] was 6.54; on full-length SHP2, 7.39.
In the same order, the values of `Nc1nccc(Sc2cnc(N3CCC4(CC3)Cc3ncc(Cl)cc3[C@H]4N)nn2)c1Cl` [Example 65, (S)-1′-(6-((2-amino-3-chloropyridin-4-yl)thio)-1,2,4-triazin-3-yl)-3-chloro-5,7-dihydrospiro[cyclopenta[b]pyridine-6,4′-piperidin]-5-amine] are 7.09 and 7.19.
On to `N[C@@H]1c2ccccc2CC12CCN(c1ncc(Sc3n[nH]c4ccccc34)nn1)CC2` [Example 67, (S)-1′-(6-((1H-indazol-3-yl)thio)-1,2,4-triazin-3-yl)-1,3-dihydrospiro[indene-2,4′-piperidin]-1-amine], for which the negative logarithm of the IC50 (pIC50) was 7.29 in test [1] and 7.70 at full-length SHP2.
Take `N[C@@H]1c2ccccc2CC12CCN(c1ncc(Sc3c[nH]c4ccccc34)nn1)CC2` [Example 69, (S)-1′-(6-((1H-indol-3-yl)thio)-1,2,4-triazin-3-yl)-1,3-dihydrospiro[indene-2,4′-piperidin]-1-amine]: the values for the pIC50 (in test [1]; at full-length SHP2) were 6.77 and 7.72, respectively.
Turning to `N[C@@H]1c2ccccc2CC12CCN(c1ncc(Sc3ccnc4c3CCN4)nn1)CC2` [Example 70, (S)-1′-(6-((2,3-dihydro-1H-pyrrolo[2,3-b]pyridin-4-yl)thio)-1,2,4-triazin-3-yl)-1,3-dihydrospiro[indene-2,4′-piperidin]-1-amine], the pIC50 was 8.05 in test [1] and 7.44 at full-length SHP2.
In the same order, the values of `N[C@@H]1c2ccccc2CC12CCN(c1ncc(Sc3cnc4ccccn34)nn1)CC2` [Example 71, (S)-1′-(6-(imidazo[1,2-a]pyridin-3-ylthio)-1,2,4-triazin-3-yl)-1,3-dihydrospiro[indene-2,4′-piperidin]-1-amine] are 6.82 and 7.26.
Taken in the same sequence, the figures for `Cn1ccc2c(Sc3cnc(N4CCC5(CC4)Cc4ccccc4[C@H]5N)nn3)ccnc21` [Example 73, (S)-1′-(6-((1-methyl-1H-pyrrolo[2,3-b]pyridin-4-yl)thio)-1,2,4-triazin-3-yl)-1,3-dihydrospiro[indene-2,4′-piperidin]-1-amine] were 8.22 and 7.49.
Taken in the same sequence, the figures for `Nc1nccc(Sc2cnc(N3CCC4(CC3)Cc3nc(Cl)sc3C4N)nn2)c1Cl` (centres unmarked) [Example 76, 1′-(6-((2-amino-3-chloropyridin-4-yl)thio)-1,2,4-triazin-3-yl)-2-chloro-4,6-dihydrospiro[cyclopenta[d]thiazole-5,4′-piperidin]-6-amine] were 8.40 and 7.39.
As to `Nc1nccc(Sc2cnc(N3CCC4(CC3)Oc3ncccc3[C@H]4N)nn2)c1Cl` [Example 77], the pIC50 was 7.04 in test [1] and 7.13 at full-length SHP2.
In the case of `N[C@@H]1c2ccccc2CC12CCN(c1ncc(-c3ccccc3)nn1)CC2` [Example 79, (S)-1′-(6-phenyl-1,2,4-triazin-3-yl)-1,3-dihydrospiro[indene-2,4′-piperidin]-1-amine], the negative-log IC50 (pIC50) in test [1] was 6.16; on full-length SHP2 it was 7.08.
Consider `N[C@@H]1c2ccccc2CC12CCN(c1ncc(-c3cccc(Cl)c3)nn1)CC2` [Example 80, (S)-1′-(6-(3-chlorophenyl)-1,2,4-triazin-3-yl)-1,3-dihydrospiro[indene-2,4′-piperidin]-1-amine], for which the figures for the pIC50 (in test [1]; at full-length SHP2) were 5.52 and 6.37, respectively.
`N[C@@H]1c2ccccc2CC12CCN(c1ncc(Oc3ccccc3)nn1)CC2` [Example 81, (S)-1′-(6-phenoxy-1,2,4-triazin-3-yl)-1,3-dihydrospiro[indene-2,4′-piperidin]-1-amine]: the pIC50 in test [1] was 8.10; at full-length SHP2, 8.40.

The record behind these values is US11634417B2 (Array BioPharma Inc., priority 2019, dated 2023).
